Results reported in US20100204130A1, “USE OF HUMAN NEUROPEPTIDE AS A THERAPEUTIC AGENT” (priority 2007, published 2010).
Where a SMILES comes first, the peptide text is derived from it.

Key:
HIV-1IIIB = experiment: HIV-1 antiviral assay (CPE reduction, MTS); format: cell-based; conditions: peptide 10 micrograms per ml, 6 days post-infection
[1] = system: hepatitis B virus (HBV) ayw strain; experiment: HBV replication assay in HepG2-2.2.15 cells (TaqMan PCR of secreted HBV DNA); format: cell-based; conditions: test peptide 10 micrograms per ml, six days, HBV DNA by TaqMan PCR
[2] = Cytotoxicity in HBV assay (dye uptake cell viability); format: cell-based; conditions: human, HepG2-2.2.15 cells, test peptide 10 micrograms per ml
HCMV strain AD169 = experiment: HCMV plaque reduction assay in MRC-5 cells; format: cell-based; conditions: HCMV AD169 in MRC-5 cells; peptide 10 micrograms per ml; 7-10 days
Excerpt: Ganciclovir was used as positive control.

MRSA = experiment: Methicillin Resistant Staphylococcus Aureus (MRSA) assay; format: cell-based; conditions: MRSA growth; peptide 10 micrograms per ml; read visually
Pseudomonas aeruginosa = Pseudomonas aeruginosa assay; format: cell-based; conditions: Pseudomonas aeruginosa growth; peptide 10 micrograms per ml; read visually
Streptococcus pneumoniae = Streptococcus pneumoniae assay; format: cell-based; conditions: Streptococcus pneumoniae growth; peptide 10 micrograms per ml; read visually
A549 cells = experiment: Propidium iodide cell cycle assay; format: cell-based, human; conditions: test peptide 10 micrograms per ml, 24 hours, FACS
Excerpt: Human A549 cells (carcinomic human alveolar basal epithelial cells) were utilized in the experiments employing the Propidium iodide cell cycle assay. The eukaryotic cell cycle is a series of events that take place in a cell leading to its replication. The regulation of the cell cycle involves steps crucial to the cell, including detecting and repairing genetic damage, and provision of various checks to prevent uncontrolled cell division. The molecular events that control the cell cycle are ordered and directional; that is, each process occurs in a sequential fashion. The cell cycle consists of four distinct phases: G1 phase, S phase, G2 phase (collectively known as interphase) and M phase. M phase is itself composed of two tightly coupled processes: mitosis, in which the cell's chromosomes are divided between the two daughter cells, and cytokinesis, in which the cell's cytoplasm divides forming distinct cells. Activation of each phase is dependent on the proper progression and completion of the previous one. Cells that have temporarily or reversibly stopped dividing are said to have entered a state of quiescence called Go phase. The relatively brief M phase consists of nuclear division and cytoplasmic division. The first phase within interphase, from the end of the previous M phase till the beginning of DNA synthesis is called G1 (G indicating gap or growth). During this phase the biosynthetic activities of the cell resume at a high rate. This phase is marked by synthesis of various enzymes that are required in S phase, mainly those needed for DNA replication. The ensuing S phase starts when DNA synthesis commences; when it is complete, all of the chromosomes have been replicated. The cell then enters the G2 phase, which lasts until the cell enters mitosis. Significant protein synthesis occurs during this phase, mainly involving the production of microtubules, which are required during the process of mitosis. […]
Propidium iodide is an intercalating agent and a fluorescent molecule that can be used to stain DNA. […] After incubation for 40 min at 37° C., cells were analyzed in the FACS.

[3] = system: Human Peripheral Blood Mononuclear Cells (PBMC); experiment: T cell proliferation assay (PHA, 3H-thymidine); format: cell-based; conditions: test peptide 10 micrograms per ml
Procedure: (§1) Human Peripheral Blood Mononuclear Cells (PBMC) were obtained from normal human donors. The T cell proliferation was induced by stimulation of the cells with the T cell mitogen phytohemagglutinin (PHA), either in the absence (positive proliferation control), or in the presence of test peptide—10 micrograms per ml—to examine their effects on the T cell proliferating response. 10^5/well PBMC were plated in 96-well microtiter plates and assayed in duplicate with the peptide. Cell cultures were incubated at 37° C. for 3 days in a 5% CO2 incubator and were thereafter pulsed with 1 microCi/well ^3H-thymidine for additional 12 hours of culture. At the end of incubation time, the plates were harvested and the cells counted by liquid scintillation for the incorporation of ^3H-thymidine as a measure of T cell proliferation.

[4] = system: Human Peripheral Blood Mononuclear Cells (PBMC); experiment: B cell proliferation assay (SAC plus Interleukin-2, 3H-thymidine); format: cell-based; conditions: test peptide 10 micrograms per ml
Procedure: as §1, with “The B” for “The T”, “the B” for “the T”, “mitogen Staphylococcus aureus Cowans I (SAC) plus Interleukin-2,” for “mitogen phytohemagglutinin (PHA),”, “cell” for “cell proliferating”, “of B” for “of T”

RAW 264.7 cells = experiment: Phagocytosis assay (Fluorescein-labeled Escherichia coli); format: cell-based, mouse; conditions: test peptide 10 micrograms per ml, flow cytometry
[5] = system: Tumor Necrosis Factor-α (TNF-α); experiment: Th1/Th2 cytokine profiling assay: TNF-α; format: cell-based, Balb/c mice; conditions: Ovalbumin-restimulated spleen cells; test peptide 10 micrograms per ml; 72 hours
Excerpt: (§2) The Balb/c mice (originated in 1923, it is a popular strain and is used in many different research disciplines. Also classified as an inbred from the production of 20 or more successive brother-sister matings, the Balb/c mouse is albino and small in size) were immunized on Days 1, 15, and 29 with Ovalbumin (Ovalbumin is the main protein found in egg white, commonly used to stimulate an immunological reaction in test animals) in PBS (5 micrograms/injection). On day 50, spleens of the mice were harvested (3 weeks after last boost with Ovalbumin). Cells were cultured (2×10^5/well in triplicate) and incubated with culture medium or test peptide—10 micrograms per ml—for 30 min. Thereafter, additional Ovalbumin was added to the cells at 10 micrograms/ml for in vitro restimulation of the cells. 72 hours later, cell supernatants were harvested and assayed using the Becton Dickinson Mouse Th1/Th2 Cytokine CBA Kit. This kit can be used to measure Interleukin-2 (IL-2), Interleukin-4 (IL-4), Interleukin-5 (IL-5), Interferon-γ (IFN-γ), and Tumor Necrosis Factor-α (TNF-α) protein levels in a single sample. The kit performance has been optimized for analysis of physiologically relevant concentrations ([…] levels) of specific cytokine proteins in tissue culture supernatants and serum samples.

Interferon-γ (IFN-γ) = experiment: Th1/Th2 cytokine profiling assay: IFN-γ; format: cell-based, Balb/c mice; conditions: Ovalbumin-restimulated spleen cells; test peptide 10 micrograms per ml; 72 hours
Excerpt: as §2

Interleukin-2 (IL-2) = experiment: Th1/Th2 cytokine profiling assay: IL-2; format: cell-based, Balb/c mice; conditions: Ovalbumin-restimulated spleen cells; test peptide 10 micrograms per ml; 72 hours
Excerpt: as §2

Interleukin-4 (IL-4) = experiment: Th1/Th2 cytokine profiling assay: IL-4; format: cell-based, Balb/c mice; conditions: Ovalbumin-restimulated spleen cells; test peptide 10 micrograms per ml; 72 hours
Excerpt: as §2

Interleukin-5 (IL-5) = experiment: Th1/Th2 cytokine profiling assay: IL-5; format: cell-based, Balb/c mice; conditions: Ovalbumin-restimulated spleen cells; test peptide 10 micrograms per ml; 72 hours
Excerpt: as §2

TNF alpha = TNF alpha production assay (LPS-stimulated macrophages, ELISA); format: cell-based; conditions: human macrophages, test peptide 10 micrograms per ml, lipopolysaccharide 200 ng/ml, overnight
Procedure: Human Peripheral Blood Mononuclear Cells (PBMC) were obtained from normal human donors. The macrophages were prepared by adherence of PBMC to the plastic wells of the plates. After 8 days in culture in the presence of recombinant human macrophage-colony stimulating factor at 2 ng/ml, differentiated macrophages were preincubated with test peptide—10 micrograms per ml—for 30 min, followed by in-well stimulation by the addition of lipopolysaccharide at a final concentration of 200 ng/ml. Not stimulated macrophages served as negative background control.
After overnight incubation, supernatants from the control and LPS-stimulated cultures were harvested and assayed for TNF alpha production employing a TNF alpha specific ELISA.

[6] = system: Primary Human endothelial cells (HUVEC); experiment: Endothelial cell migration assay; format: cell-based; conditions: test peptide 10 micrograms per ml, 22 hours
Procedure: Endothelial cell migration is a prerequisite for the process of neo-vascularization or angiogenesis which is crucial for on-site recruitment of blood vessel formation. Primary Human endothelial cells (HUVEC) were seeded in insert chambers with 3 micrometer pore size of multi-transwell plate for 6 hours at 37° C. in Endothelial Cell Basal Medium (EBM) supplemented with 0.1% bovine serum albumin. Thereafter, designated concentration of test peptide—10 micrograms per ml—was added in duplicate wells. The endothelia were allowed to migrate for 22 hours at 37° C., then, migrated cells were fixed and stained with Hoechst 33342 dye. Images of 3 fields per insert were taken and the number of migrated cells per field were quantified using the ImageProPlus software. Data were analyzed for the average number of the migrated cells and standard deviation of six data points for each treatment condition. Active test peptide against HUVEC migration was determined based on 50% inhibition of migrated cells as compared with the control. Statistic p values were computed using the Student's t-test.

HUVEC = experiment: Endothelial tube formation assay; format: cell-based, human; conditions: test peptide 10 micrograms per ml, 20 hours
Procedure: The endothelial tube formation assay is based on the ability of endothelial cells to form three-dimensional capillary-like tubular structures when cultured on a gel of basement membrane extract. The endothelial tube formation assay represents a powerful model for studying inhibition and induction of angiogenesis. Pre-labeled HUVEC with Calcein AM were seeded in a 96-well culture plate coated with extracellular metrix (Chemicon international Cat. ECM625) and treated with test peptide—10 micrograms per ml—in full growth medium. […] control was vehicle only. The endothelial cells were allowed to form tubes for 20 hours and were then examined under an inverted fluorescent microscope. Duplicate wells for each treatment were photographed and quantitatively analyzed for an average tubule length using image analysis software ImageProPlus. Raw data were expressed as average tubule lengths in pixels ±standard deviation. Statistic p values were computed using the Student's t-test.

[7] = Cytotoxicity in HIV-1 assay (MTS cell viability); conditions: human, CEM-SS cells
[8] = Cytotoxicity in HCMV assay (CellTiter 96 cell viability); conditions: human, MRC-5 cells (embryonal lung fibroblasts)

Cc1cn([C@H]2C[C@H](N=[N+]=[N-])[C@@H](CO)O2)c(=O)[nH]c1=O [AZT]
% CPE reduction in HIV-1 infected CEM-SS cells (HIV-1IIIB): 99%

CC(C)C[C@H](NC(=O)CNC(=O)[C@H](CCC(=O)O)NC(=O)CNC(=O)[C@H](C)N)C(=O)N[C@@H](CC(N)=O)C(=O)N[C@@H](CO)C(=O)N[C@@H](CCC(N)=O)C(=O)N[C@@H](Cc1ccccc1)C(=O)N[C@@H](Cc1c[nH]c2ccccc12)C(=O)N[C@@H](CO)C(=O)N[C@@H](CC(C)C)C(=O)N[C@@H](C)C(=O)N[C@@H](C)C(=O)N1CCC[C@H]1C(=O)N[C@@H](CCC(N)=O)C(=O)N[C@@H](CCCNC(=N)N)C(=O)N[C@@H](Cc1ccccc1)C(N)=O [Neuropeptide AF, Ala-Gly-Glu-Gly-Leu-Asn-Ser-Gln-Phe-Trp-Ser-Leu-Ala-Ala-Pro-Gln-Arg-Phe-NH2] (H-AGEGLNSQFWSLAAPQRF-NH2)
% CPE reduction in HIV-1 infected CEM-SS cells (HIV-1IIIB): 0.0% | % inhibition of HBV replication in HEP G2 cells [1]: 42.6% | viability at 144 h, 10 micrograms per ml [2]: 100% | % plaque reduction (HCMV strain AD169): 6.9% | % inhibition (MRSA): 0.0% | % inhibition (Pseudomonas aeruginosa): 0.0% | % inhibition (Streptococcus pneumoniae): 0.0% | Cell cycle analysis G0/G1 (A549 cells): 55.5 | Cell cycle analysis G2/M (A549 cells): 10.0 | Cell cycle analysis S (A549 cells): 34.5 | % of PHA induced control [3]: 103.8% | % of SAC/IL2 induced control [4]: 105.7% | % of control phagocytosis (RAW 264.7 cells): 105.9% | TNF-a spleen cells; TH1 response (% of control) [5]: 92.1 % of control | IFNγ spleen cells; TH1 response (% of control) (Interferon-γ (IFN-γ)): 84.8 % of control | IL-2 spleen cells (% of control) (Interleukin-2 (IL-2)): 0.0 % of control | IL-4 spleen cells; TH2 response (% of control) (Interleukin-4 (IL-4)): 0.0 % of control | IL-5 spleen cells; TH2 response (% of control) (Interleukin-5 (IL-5)): 52.2 % of control | % of LPS induction (TNF alpha): 104.7% | % inhibition of migration [6]: −4% | % inhibition of tube formation (HUVEC): −9% | viability at 10 micrograms per ml [7]: 81.6% | viability at 144 h [8]: 100%

CC(C)(C)NC(=O)[C@@H]1CN(Cc2cccnc2)CCN1C[C@@H](O)C[C@@H](Cc1ccccc1)C(=O)N[C@H]1c2ccccc2C[C@H]1O [Indinavir]
% CPE reduction in HIV-1 infected CEM-SS cells (HIV-1IIIB): 100%
